According to patent publication US20060058372A1, “N-Benzodioxolyl, n-benzodioxanyl and n-benzodioxepinyl arylcarboxamide derivatives and pharmaceutical compositions comprising them” (priority 2002, published 2006):

Key:
[1] = tested on: apo B secretion in HepG2 cells; test: Inhibition of apo B secretion in the HepG2 human cell line (sandwich ELISA); type: cell-based; settings: 24 hours incubation, culture supernatant, ELISA specific for human apo B, read-out: IC50 (concentration that produces a 50% inhibition of apo B secretion in the HepG2 cells)
Experimental: Analysis of the secretion of apo B in the HepG2 human cell line:
The activity of a compound according to the invention can be evaluated by measuring the inhibition of apo B secretion in HepG2 cells.
The HepG2 cells (ECACC—No. 85011430) are used as model in the study of the in vitro hepatic secretion of lipoproteins (Dixon J. and Ginsberg H.-J. Lipid. Res.—1993, 34:167-179).
The HepG2 cells are cultured in Dulbecco's modified Eagle's medium comprising 10% foetal calf serum (DMEM and FBS-Gibco) in 96-well plates under an atmosphere of 5% carbon dioxide for 24 hours (about 70% confluence).
The test compounds are dissolved at a concentration of 2 or 10 mM in dimethyl sulfoxide (DMSO). Serial dilutions (1:3.16) are made in DMSO and are added (1:200—Robot Multimek Beckman) to the growth medium (200 microlitres) and then finally incubated for 24 hours in the various wells containing the HepG2 cells.
The 24-hour culture supernatant diluted to 1:5 (phosphate-buffered saline: PBS comprising 1% bovine serum albumin) is tested according to a sandwich-ELISA method specific for human apo B.
The results are expressed in terms of IC50, i.e. the concentration that produces a 50% inhibition of apo B secretion in the HepG2 cells.

[2] = molecular target: T1, microsomal triglyceride transfer protein (MTP) (Mesocricetus auratus, UniProt P55158); test: Inhibition of MTP activity: transfer of [3H]-triolein from donor liposomes to biotinylated LDL (SPA); type: biochemical; settings: MTP from golden hamster liver microsomes; incubation 18-24 hours at 37° C.; read-out: IC50 (concentration that allows a 50% inhibition of MTP)
T1 construct: The supernatant comprising the soluble MTP is dialysed; from tissue; host or cells: golden hamster liver microsomes, deoxycholate-solubilised
T1 sequence (P55158 19-895): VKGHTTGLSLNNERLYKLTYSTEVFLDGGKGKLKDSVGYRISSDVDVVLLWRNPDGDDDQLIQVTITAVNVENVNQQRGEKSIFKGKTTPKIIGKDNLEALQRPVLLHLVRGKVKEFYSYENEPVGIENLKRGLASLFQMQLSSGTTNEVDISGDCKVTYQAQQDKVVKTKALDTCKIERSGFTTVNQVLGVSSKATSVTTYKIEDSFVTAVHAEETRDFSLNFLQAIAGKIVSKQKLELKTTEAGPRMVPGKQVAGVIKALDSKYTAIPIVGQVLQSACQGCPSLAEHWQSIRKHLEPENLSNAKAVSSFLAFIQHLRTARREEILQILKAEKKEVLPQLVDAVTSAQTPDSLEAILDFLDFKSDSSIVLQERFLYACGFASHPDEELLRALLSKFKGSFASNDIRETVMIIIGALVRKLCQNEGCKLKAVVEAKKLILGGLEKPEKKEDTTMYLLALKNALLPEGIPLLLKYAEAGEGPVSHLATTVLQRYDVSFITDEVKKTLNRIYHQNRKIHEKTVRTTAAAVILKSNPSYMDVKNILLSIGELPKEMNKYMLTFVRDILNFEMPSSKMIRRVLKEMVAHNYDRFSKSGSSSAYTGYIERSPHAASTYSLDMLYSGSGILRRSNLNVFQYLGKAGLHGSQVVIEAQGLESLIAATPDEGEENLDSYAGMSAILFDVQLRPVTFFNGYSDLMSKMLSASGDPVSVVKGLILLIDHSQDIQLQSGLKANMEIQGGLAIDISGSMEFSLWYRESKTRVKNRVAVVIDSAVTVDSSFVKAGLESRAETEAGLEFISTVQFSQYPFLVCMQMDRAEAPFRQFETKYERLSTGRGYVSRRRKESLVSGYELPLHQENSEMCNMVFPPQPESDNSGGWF
T1 sequence (Q8R4U2 20-509 partner): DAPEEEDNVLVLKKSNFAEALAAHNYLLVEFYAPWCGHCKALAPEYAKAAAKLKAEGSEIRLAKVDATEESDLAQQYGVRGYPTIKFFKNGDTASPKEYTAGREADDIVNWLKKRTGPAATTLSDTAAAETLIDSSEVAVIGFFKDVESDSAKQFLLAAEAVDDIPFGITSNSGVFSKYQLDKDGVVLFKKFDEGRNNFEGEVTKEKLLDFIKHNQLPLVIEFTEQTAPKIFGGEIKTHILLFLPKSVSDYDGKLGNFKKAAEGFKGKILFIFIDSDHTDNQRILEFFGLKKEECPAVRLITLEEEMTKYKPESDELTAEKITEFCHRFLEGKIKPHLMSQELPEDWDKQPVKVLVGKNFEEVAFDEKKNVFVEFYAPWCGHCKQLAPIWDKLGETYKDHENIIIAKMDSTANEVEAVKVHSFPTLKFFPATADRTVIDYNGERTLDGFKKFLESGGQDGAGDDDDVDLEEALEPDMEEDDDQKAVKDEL
Experimental: Analysis of the Inhibition of MTP Activity
The inhibition of the activity of microsomal triglyceride transfer protein (MTP) was tested by using the following operating protocol.
The inhibition of MTP activity with a compound can be quantified by observing the inhibition of the transfer of a labelled triglyceride, from a donor particle to an acceptor particle, in the presence of MTP. The procedure for the preparation of MTP is based on the method by Wetterau and Zilversmit (Biochem. Biophys. Acta (1986) 875: 610). A few grams of golden hamster liver are taken and then rinsed several times in a 250 mM sucrose solution at 0° C. All the following steps proceed at +4° C. A homogenate at a concentration of 50% in 250 mM sucrose is prepared using a Teflon mill and then centrifuged for 10 minutes at 10 000×g at +4° C. The supernatant is then centrifuged at 105 000×g for 75 minutes at +4° C. The supernatant is discarded and the microsomal pellet is taken up in 3 ml (per g of starting liver) of Tris/HCl 150 mM pH 8.0. 1 ml aliquot fractions are stored at −80° C. until the time of use.
After thawing a fraction of microsomes (1 ml), 12 ml of refrigerated Tris/HCl 50 mM, KCl 50 mM, MgCl2 5 mM pH 7.4 buffers and 1.2 ml of deoxycholate (0.54% in water) are added. After incubation for 30 minutes at +4° C. with gentle agitation, the suspension is centrifuged at 105 000×g for 75 minutes. The supernatant comprising the soluble MTP is dialysed against Tris/HCl 150 mM, NaCl 40 mM, EDTA 1 mM, 0.02% sodium azide pH 7.4 buffer (5 times one litre over 2-3 days). The MTP is stored at +4° C., is stable for at least 30 days and is used in unmodified form in the test.
The donor particles (liposomes) are prepared from 208 μl of L-phosphatidylcholine at a concentration of 10 mg/ml in chloroform, and 480 μl of [3H]-triolein at a concentration of 0.5 mCi/ml in toluene. After stirring, the solution is evaporated under nitrogen, taken up in 6 ml of Tris/HCl 50 mM, KCl 50 mM, MgCl2 5 mM pH 7.4 buffer and incubated in an ultrasound bath for 30 minutes at room temperature. The liposomes are stored at +4° C. and sonicated again for 10 minutes before each use.
The acceptor particles are biotinylated low density lipoproteins (LDL-biot). These particles are supplied by the company Amersham.
The reaction mixture is prepared in untreated ½ well white plates (Corning Costar) by addition, in the following order, of: 5 μl of HEPES 50 mM, NaCl 150 mM, BSA 0.1% (w/v), 0.05% sodium azide (w/v), pH 7.4 buffer; 5 μl of liposomes; 5 μl of LDL-biot; 5 μl of test products in DMSO; 5 μl of MTP. After incubation for 18-24 hours at 37° C., the reaction is stopped by adding 100 μl of Amersham SPA (Scintillation Proximity Assay) beads coupled to streptavidin, and the radioactivity is counted using a Top Count (Packard) at least one hour later. The inhibition of the transfer of the triglycerides with a compound is reflected by a reduction in the transferred radioactivity.
The results are expressed in terms of the IC50, i.e. the concentration that allows a 50% inhibition of MTP.

Structure (SMILES) | IC50 [1] [nM] | IC50 [2] [nM]
COCC1COc2ccc(NC(=O)c3ccccc3-c3ccc(C(C)C)cc3)cc2O1 (stereo not drawn) [Example 20, 4′-isopropylbiphenyl-2-carboxylic acid (3-methoxymethyl-2,3-dihydrobenzo[1,4]dioxin-6-yl)amide] | 65 | 
CCNC(=O)OCC1COc2ccc(NC(=O)c3ccccc3-c3ccc(C(C)C)cc3)cc2O1 (stereo not drawn) [Example 21, 7-[(4′-isopropylbiphenyl-2-carbonyl)amino]-2,3-dihydrobenzo[1,4]dioxin-2-ylmethyl ethylcarbamate] | 197 | 
CC(C)c1ccc(-c2ccccc2C(=O)Nc2ccc3c(c2)OC(F)(F)O3)cc1 [Example 33, (4′-isopropylbiphen-2-yl)-N-(2,2-difluorobenzo[1,3]dioxol-5-yl)carboxamide] | 68 | 230
O=C(Nc1ccc2c(c1)OC(F)(F)O2)c1ccccc1-c1ccc(OC(F)(F)F)cc1 [Example 40, 5-(4′-trifluoromethoxybiphen-2-ylcarbonylamino)-2,2-difluorobenzo[1,3]-dioxole] |  | 220
CC(C)c1ccc(-c2ccccc2C(=O)Nc2ccc3c(c2)OCO3)cc1 [Example 41, 5-(4′-isopropylbiphen-2-ylcarbonylamino)benzo[1,3]dioxole] | 129 | 
Cc1cccc(-c2ccc(OC(F)(F)F)cc2)c1C(=O)Nc1ccc2c(c1)OC(F)(F)O2 [Example 49, 5-(4′-trifluoromethoxy-3-methylbiphen-2-ylcarbonylamino)-2,2-difluorobenzo[1,3]dioxole] | 302 | 136
O=C(Nc1ccc2c(c1)OCO2)c1ccccc1-c1ccc(OC(F)(F)F)cc1 [Example 51, 4′-trifluoromethoxybiphenyl-2-carboxylic acid benzo[1,3]dioxol-5-ylamide] | 72 | 
CC(C)=Cc1ccc(-c2ccccc2C(=O)Nc2ccc3c(c2)OC(F)(F)O3)cc1 [Example 69, 4′-(2-methylpropenyl)biphenyl-2-carboxylic acid (2,2-difluorobenzo[1,3]-dioxol-5-yl)amide] | 288 | 
O=C(Nc1ccc2c(c1)OC(F)(F)O2)c1cccc(Cl)c1-c1ccc(OC(F)(F)F)cc1 [Example 91] | 213 | 223
COc1cccc(C(=O)Nc2ccc3c(c2)OC(F)(F)O3)c1-c1ccc(OC(F)(F)F)cc1 [Example 94] | 66 | 193

The next lines start with the values.

IC50 [1] [nM] | IC50 [2] [nM] | Structure (SMILES)
97 |  | CCc1ccc(-c2ccccc2C(=O)Nc2ccc3c(c2)OC(F)(F)O3)cc1 [Example 32, 4′-ethylbiphenyl-2-carboxylic acid (2,2-difluorobenzo[1,3]dioxol-5-yl)-amide]
 | 270 | CCc1ccc(-c2cccc(C)c2C(=O)Nc2ccc3c(c2)OC(F)(F)O3)cc1 [Example 42, 5-(4′-ethyl-3-methylbiphen-2-ylcarbonylamino)-2,2-difluorobenzo[1,3]-dioxole]
 | 340 | CCNC(=O)OCCc1ccc(-c2ccccc2C(=O)Nc2ccc3c(c2)OC(F)(F)O3)cc1 [Example 48, 5-(4′-ethylaminocarbonyloxyethylbiphen-2-ylcarbonylamino)-2,2-difluorobenzo[1,3]dioxole]
195 |  | O=C(Nc1ccc2c(c1)OC(F)(F)O2)c1ccccc1-c1ccc(CCO)cc1 [Example 53, 4′-(2-hydroxyethyl)biphenyl-2-carboxylic acid (2,2-difluorobenzo[1,3]-dioxol-5-yl)amide]
219 |  | CC(C)Cc1ccc(-c2ccccc2C(=O)Nc2ccc3c(c2)OC(F)(F)O3)cc1 [Example 57, 4′-isobutylbiphenyl-2-carboxylic acid (2,2-difluorobenzo[1,3]dioxol-5-yl)-amide]
30 | 44 | CC(C)c1ccc(-c2c(Cl)cccc2C(=O)Nc2ccc3c(c2)OC(F)(F)O3)cc1 [Example 90]
65 | 61 | Cc1cccc(C(=O)Nc2ccc3c(c2)OC(F)(F)O3)c1-c1ccc(CCOCc2ccccc2)cc1 [Example 93, 4′-(2-benzyloxyethyl)-6-methylbiphenyl-2-carboxylic acid (2,2-difluorobenzo[1,3]dioxol-5-yl)amide]
 | 312 | CCNC(=O)OCCc1ccc(-c2c(C)cccc2C(=O)Nc2ccc3c(c2)OC(F)(F)O3)cc1 [Example 98]
